Consider 26 molecules from patent US20240417405A1, “Substituted Spiro Derivatives” (Janssen Pharmaceutica NV, priority 2021, published 2024).

The test system of one test is KO-52 cells. The experiment in a line: Proliferation assay, spheroid-like growth, KO-52 (MLL wildtype control cell line). It is filed as cell-based, human. As to conditions: Homo sapiens, 192 h, KO-52 control cells, 8 days, confluence as measure of spheroid size; read-out: spheroid assay_OneTime KO-52 IC50. In a few lines: (§1)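 IC50 derived from a variable-slope dose-response fit of percent confluence change, with DMSO-treated cells as high control and high-dose reference compound as low control. Spheroid-like growth of MOLM14 (200 cells/well) or KO-52 (300 cells/well) in ultra-low attachment plates, 8 days, 37° C, 5% CO2, DMSO normalised to 0.3%, imaged at day 8.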

Test [1] concerns the target T1, menin/MLL (terbium chelate-labeled menin, FITC-MBM1 peptide) (Homo sapiens, UniProt O00255, T541A).
T1 construct: Menin (a.a 1-610-6xhis tag)
T1 sequence (O00255 with tags, fused parts or gaps T541A): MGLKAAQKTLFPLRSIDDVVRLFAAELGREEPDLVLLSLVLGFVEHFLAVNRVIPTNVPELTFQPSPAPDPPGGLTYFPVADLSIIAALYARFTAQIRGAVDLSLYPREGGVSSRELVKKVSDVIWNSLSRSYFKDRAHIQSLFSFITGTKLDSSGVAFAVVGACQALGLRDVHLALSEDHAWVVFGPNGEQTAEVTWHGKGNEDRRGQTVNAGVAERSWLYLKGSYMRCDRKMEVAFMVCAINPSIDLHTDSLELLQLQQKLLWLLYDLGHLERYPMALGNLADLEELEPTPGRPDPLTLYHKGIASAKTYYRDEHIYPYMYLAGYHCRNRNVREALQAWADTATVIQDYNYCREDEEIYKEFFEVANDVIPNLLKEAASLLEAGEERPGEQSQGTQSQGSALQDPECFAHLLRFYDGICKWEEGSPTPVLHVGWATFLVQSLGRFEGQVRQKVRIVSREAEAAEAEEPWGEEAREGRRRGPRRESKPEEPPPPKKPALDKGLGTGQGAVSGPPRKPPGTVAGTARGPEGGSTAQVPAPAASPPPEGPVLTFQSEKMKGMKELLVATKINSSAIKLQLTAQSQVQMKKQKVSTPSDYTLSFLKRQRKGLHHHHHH
Kind of test: Menin/MLL homogenous time-resolved fluorescence (HTRF) assay. Format: binding. As to conditions: 30 min incubation. In outline: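 Compounds were preincubated 30 min at ambient temperature with 200 pM terbium-labeled menin (aa 1-610, His-tagged) in Tris pH 7.5 buffer with DTT and Pluronic, then 75 nM FITC-MBM1 peptide added for 15 min. HTRF ratio 520/490 nm gave % inhibition; IC50 from four-parameter fit, floor 0.1 nM.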

A further test deals with MOLM14 cells. The experiment in a line: Proliferation assay, spheroid-like growth, MOLM14 (MLL-AF9 rearranged). Format: cell-based, human. The settings on record: Homo sapiens, MOLM-14, 192 h, 8 days, confluence as measure of spheroid size, read-out: spheroid assay_OneTime MOLM14 IC50. In outline:
as §1

Consider `CC(=O)N[C@H]1C[C@@H]([C@@H](C(C)C)N2CC3(CCN(c4ncnnc4Oc4ccc(F)cc4-c4ncncc4C4CC4)C3)C2)C1` (single isomer, unassigned) [Compound 180], for which the IC50 (in general, the midpoint of a concentration-inhibition curve) in the test with KO-52 cells amounted to 10100 nM; in test [1], 0.3 nM; in the test with MOLM14 cells, 62 nM.
The corresponding values for `CC(C)[C@H]([C@H]1C[C@H](N2CCC[C@H](C(=O)N(C)C)C2)C1)N1CC2(CCN(c3ncnnc3Oc3ccc(F)cc3-c3cncnc3C3CC3)C2)C1` (single isomer, unassigned) [Compound 52] are 14000 nM, 0.4 nM and 210 nM.
For `CC(C)C([C@H]1C[C@H](N2CCC(F)(F)CC2)C1)N1CC2(CCN(c3ncnnc3Oc3ccc(F)cc3-c3cncnc3C3CC3)C2)C1` (stereo partly drawn) [Compound 128], the 50% inhibitory concentration (IC50) is 7890 nM with KO-52 cells, 1.3 nM in test [1] and 450 nM with MOLM14 cells.
The corresponding values for `CC(C)C(C1CC2(CCN2)C1)N1CC2(CCN(c3ncnnc3Oc3ccc(F)cc3-c3cncnc3C3CC3)C2)C1` (stereo not drawn) [Compound 198] are over 15000 nM, 0.3 nM and 250 nM.
The corresponding values for `CC(C)C([C@H]1C[C@@H](N2C[C@H]3COC[C@H]3C2)C1)N1CC2(CCN(c3ncnnc3Oc3ccc(F)cc3-c3cncc(C#N)c3C3CC3)C2)C1` (stereo partly drawn) [Compound 142] are 1350 nM, 0.1 nM and 7 nM.
For `CC(C)[C@@H]([C@H]1C[C@H](N2CCC2)C1)N1CC2(CCN(c3ncnnc3Oc3ccc(F)cc3-c3cncnc3C3CC3)C2)C1` (single isomer, unassigned) [Compound 346] the same measures were over 15000 nM, 2.3 nM and 700 nM.
As to `CC(=O)N[C@H]1C[C@@H](C(C(C)C)N2CC3(CCN(c4ncnnc4Oc4ccc(F)cc4-c4cnncc4C4CC4)C3)C2)C1` (stereo partly drawn) [Compound 187], the IC50 in the test on KO-52 cells is over 15000 nM; in test [1] it was 0.8 nM; in the test with MOLM14 cells, 65 nM.
`CC(=O)N1CC2CN([C@H]3C[C@@H]([C@@H](C(C)C)N4CC5(CCN(c6ncnnc6Oc6ccc(F)cc6-c6cncnc6C6CC6)C5)C4)C3)CC2C1` (single isomer, unassigned) [Compound 64]: the IC50 was over 15000 nM with KO-52 cells, 0.1 nM in test [1] and 2 nM with MOLM14 cells.
`CC(=O)N[C@H]1C[C@@H](C(C(C)C)N2CC3(CCN(c4ncnnc4Oc4ccc(F)cc4-c4c[nH]c(=O)nc4C4CC4)C3)C2)C1` (stereo partly drawn) [Compound 196]: the figures for the half-maximal inhibitory concentration (IC50) (in the test with KO-52 cells; in test [1]; in the test on MOLM14 cells) were over 15000 nM, 13.6 nM and over 940 nM, respectively.
For `CC(=O)N1CCN([C@H]2C[C@@H]([C@H](C(C)C)N3CC4(CCN(c5ncnnc5Oc5ccc(F)cc5-c5ncc(C#N)cc5C5CC5)C4)C3)C2)CC1` (single isomer, unassigned) [Compound 96], the values for the IC50 (in the test on KO-52 cells; in test [1]; with MOLM14 cells) were over 15000 nM, 153 nM and over 940 nM, respectively.
For `CC(=O)N1CCN([C@H]2C[C@@H]([C@H](C(C)C)N3CC4(CCN(c5ncnnc5Oc5ccc(F)cc5-c5cccnc5C5CC5)C4)C3)C2)CC1` (single isomer, unassigned) [Compound 89] the same measures were 6180 nM, 0.2 nM and 20 nM.
In the case of `CC(C)[C@H]([C@H]1C[C@@H](N2C[C@H]3C[C@@H]2CO3)C1)N1CC2(CCN(c3ncnnc3Oc3ccc(F)cc3-c3ncccc3C3CC3)C2)C1` (single isomer, unassigned) [Compound 288], the IC50 was 12100 nM with KO-52 cells, 0.1 nM in test [1] and 17 nM in the test with MOLM14 cells.
For `CC(C)[C@H]([C@H]1C[C@H](N2CC[C@H](F)C2)C1)N1CC2(CCN(c3ncnnc3Oc3ccc(F)cc3-c3cncnc3C3CC3)C2)C1` (single isomer, unassigned) [Compound 239], the IC50 with KO-52 cells was 2810 nM; in test [1], 0.3 nM; in the test with MOLM14 cells, 16 nM.
`CC(C)[C@H]([C@H]1C[C@@H](N2CCC3(C2)CS(=O)(=O)C3)C1)N1CC2(CCN(c3ncnnc3Oc3ccc(F)cc3-c3cncnc3C3CC3)C2)C1` (single isomer, unassigned) [Compound 205]: the IC50 in the test on KO-52 cells was found to be 8470 nM; in test [1] it was 0.1 nM; in the test on MOLM14 cells, 39 nM.
The corresponding values for `CC(C)[C@H]([C@H]1C[C@@H](NC(=O)C2(F)CC2)C1)N1CC2(CCN(c3ncnnc3Oc3ccc(F)cc3-c3cncnc3C3CC3)C2)C1` (single isomer, unassigned) [Compound 301] are 2500 nM, 0.2 nM and 33 nM.
Take `CC(C)[C@H]([C@H]1C[C@@H](NC(=O)C(C)(C)C)C1)N1CC2(CCN(c3ncnnc3Oc3ccc(F)cc3-c3cncnc3C3CC3)C2)C1` (single isomer, unassigned) [Compound 300]: the half-inhibitory concentration (IC50) in the test with KO-52 cells was 8190 nM; in test [1], 0.3 nM; with MOLM14 cells, 170 nM.
For `CC(C)C([C@H]1C[C@@H](N2CCS(=O)(=O)CC2)C1)N1CC2(CCN(c3ncnnc3Oc3ccc(F)cc3-c3cncnc3C3CC3)C2)C1` (stereo partly drawn) [Compound 123] the same measures were over 15000 nM, 5.4 nM and 1910 nM.
As to `CC(=O)N[C@H]1C[C@@H](C(C(C)C)N2CC3(CCN(c4ncnnc4Oc4ccc(F)cc4-c4cncnc4C4CC4)C3)C2)C1` (stereo partly drawn) [Compound 2], the IC50 in the test with KO-52 cells stood at 9040 nM; in test [1], 0.4 nM; in the test with MOLM14 cells it was 29 nM.
For `CC(C)C([C@H]1C[C@@H](N2CCC(F)(F)CC2)C1)N1CC2(CCN(c3ncnnc3Oc3ccc(F)cc3-c3cncnc3C3CC3)C2)C1` (stereo partly drawn) [Compound 127] the same measures were 4660 nM, 0.5 nM and 160 nM.
For `CC(C)[C@H]([C@H]1C[C@@H](N2CCC[C@@H](F)C2)C1)N1CC2(CCN(c3ncnnc3Oc3ccc(F)cc3-c3cncnc3C3CC3)C2)C1` (single isomer, unassigned) [Compound 206], the values for the half-inhibitory concentration (IC50) (in the test with KO-52 cells; in test [1]; in the test with MOLM14 cells) were 7950 nM, 0.2 nM and 9 nM, respectively.
For `CC(C)[C@H]([C@H]1C[C@@H](NC(=O)CCN(C)C)C1)N1CC2(CCN(c3ncnnc3Oc3ccc(F)cc3-c3cncnc3C3CC3)C2)C1` (single isomer, unassigned) [Compound 297] the same measures were 10600 nM, 0.1 nM and 10 nM.
For `CC(C)[C@H]([C@H]1C[C@H](N2CC3(COC3)C2)C1)N1CC2(CCN(c3ncnnc3Oc3ccc(F)cc3-c3ncccc3C3CC3)C2)C1` (single isomer, unassigned) [Compound 152] the same measures were 3960 nM, 0.2 nM and 49 nM.
For `CC(C)[C@H]([C@H]1C[C@@H](N2CC[C@H](C(C)(C)O)C2)C1)N1CC2(CCN(c3ncnnc3Oc3ccc(F)cc3-c3cncnc3C3CC3)C2)C1` (single isomer, unassigned) [Compound 68] the same measures were 4410 nM, 0.1 nM and 5 nM.
Take `CC(C)[C@H]([C@H]1C[C@@H](NC(=O)C2CC2)C1)N1CC2(CCN(c3ncnnc3Oc3ccc(F)cc3-c3cncnc3C3CC3)C2)C1` (single isomer, unassigned) [Compound 303]: the figures for the IC50 (in the test with KO-52 cells; in test [1]; with MOLM14 cells) were 4530 nM, 0.3 nM and 7 nM, respectively.
The corresponding values for `CC(C)[C@@H]([C@H]1C[C@@H](N2CCC3(COC3)C2)C1)N1CC2(CCN(c3ncnnc3Oc3ccc(F)cc3-c3cccnc3C3CC3)C2)C1` (single isomer, unassigned) [Compound 289] are 310 nM, 0.1 nM and 2 nM.
For `CC(C)[C@@H]([C@H]1C[C@@H](N2CC[C@H](C(=O)N(C)C)C2)C1)N1CC2(CCN(c3ncnnc3Oc3ccc(F)cc3-c3cnncc3C3CC3)C2)C1` (single isomer, unassigned) [Compound 116] the same measures were 8890 nM, 0.1 nM and 7 nM.
